Source: paper PMC8983325 (Protein & Cell, 2022)
Several values for one entry are separate records, joined by “and”; a condition that tells them apart may be missing. Equal values may be shown once. Read-outs that look alike come from different tables or passages of the source.

Tests used:
SARS2-PLpro [1] = biological target: T1, SARS2-PLpro (Severe acute respiratory syndrome coronavirus 2, UniProt P0DTD1); type: biochemical; conditions: read-out: IC50 against SARS2-PLpro
SARS-CoV-2 [2] = assay: microbe, parasite or virus in culture; type: cell-based
MERS-CoV [3] = assay: microbe, parasite or virus in culture; type: cell-based
SARS-CoV-2 [4] = type: cell-based
MERS-CoV [5] = type: cell-based
hCoV-229E = type: cell-based
hCoV-OC43 = type: cell-based
SARS-CoV-2 [6] = type: cell-based; remark: listed apart in the source
MERS-CoV [7] = type: cell-based; remark: listed apart in the source
SARS2-PLpro [8] = biological target: T1, SARS2-PLpro; type: binding, SARS-CoV-2
MERS-PLpro_WT = MERS-PLpro_WT (Middle East respiratory syndrome-related coronavirus, UniProt K9N7C7); type: binding
MERS-PLpro_WT, sequence (K9N7C7 1552-1823 limits assumed): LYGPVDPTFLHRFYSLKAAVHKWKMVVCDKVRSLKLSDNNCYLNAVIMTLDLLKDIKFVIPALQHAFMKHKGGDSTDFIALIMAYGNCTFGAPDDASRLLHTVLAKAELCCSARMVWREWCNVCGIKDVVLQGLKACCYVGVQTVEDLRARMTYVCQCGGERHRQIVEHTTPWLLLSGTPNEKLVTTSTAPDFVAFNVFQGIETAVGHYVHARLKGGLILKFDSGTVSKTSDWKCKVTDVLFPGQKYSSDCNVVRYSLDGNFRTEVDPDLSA

SARS-CoV-2 [9] = test system: SARS-CoV-2; parameters: species or system golden Syrian hamster; conditions: hamster, in vivo
human DUBs = type: biochemical
SARS2-PLpro [10] = biological target: T1, SARS2-PLpro; type: biochemical
[11] = test system: cellular proteases (serine, cysteine and acid proteases); type: biochemical
[12] = test system: PLpro-mediated IFN suppression (SARS2-PLpro, MERS-PLpro); type: cell-based
ISG15 and PKR expression [13] = type: cell-based
[14] = test system: Huh-7, VeroE6/TMPRSS2, Calu-3, Caco-2, BSC-1 cells and human embryonic lung fibroblasts (HELF)
ISG15 and PKR expression [15] = test system: ISG15 and PKR expression
MERS-PLpro = MERS-PLpro (Middle East respiratory syndrome-related coronavirus, UniProt K9N7C7); type: biochemical
MERS-PLpro, sequence (K9N7C7 1552-1823 limits assumed): as above

[16] = Severe acute respiratory syndrome coronavirus 2, read-out: EC50 anti-SARS-CoV-2

Compound: O=C(Nc1ccccc1Cl)c1sc(=S)n2c1[nH]c(=O)c1ccccc12 [F0213]
- IC50 (SARS2-PLpro [1]): 7.4 µM
- EC50 (SARS-CoV-2 [2]; [16]): 4.55 µM
- EC50 (SARS-CoV-2 [2]; read-out: EC50 anti-SARS-CoV-2): 4.55 µM and 4.5 µM
- EC50 (MERS-CoV [3]; Middle East respiratory syndrome-related coronavirus, read-out: antiviral EC50 against MERS-CoV): 1.54 µM
- reduction of SARS-CoV-2 viral yields (SARS-CoV-2 [4]): more than 1 log10
- decrease of viral yields, MERS-CoV (MERS-CoV [5]): about 3 log10
- decrease of viral yields, hCoV-229E (hCoV-229E): about 2 log10
- decrease of viral yields, hCoV-OC43 (hCoV-OC43): around 1.5 log10
- NP antigen immunofluorescence, SARS-CoV-2-infected Vero cells (SARS-CoV-2 [6]): significant inhibition of virus replication
- NP antigen immunofluorescence, MERS-CoV-infected Vero cells (MERS-CoV [7]): significant inhibition of virus replication
- KD of F0213 to SARS2-PLpro pre-incubated with GRL0617 (SARS2-PLpro [8]): undetectable
- binding affinity to SARS2-PLpro relative to GRL0617 (fold less) (SARS2-PLpro [8]): around 5 fold
- Kd (SARS2-PLpro [8]; read-out: Kd, SARS2-PLpro): 40.5 µM
- Kd (MERS-PLpro_WT; read-out: KD, MERS-PLpro WT): 0.95 µM
- decrease of infectious viral PFU in lung tissues (SARS-CoV-2 [9]): 1–2 log10
- lung histology scores (SARS-CoV-2 [9]): significantly reduced
- suppression of SARS-CoV-2 genome copies (normalized by β-actin) in the lungs (SARS-CoV-2 [9]): comparable degree of suppression
- modification of cellular DUBs by HA-Ub-VS (human DUBs): no change
- modification of PLpro by HA-Ub-VS (SARS2-PLpro [10]): almost completely eliminated
- cellular protease activity [11]: not affected
- IFN-β, IRF3 and NF-κB reporter gene expression under PLpro suppression [12]: rescued the genes expression in a dose-dependent manner
- transcription levels of ISG15 and PKR, MERS-CoV-infected Huh-7 cells (ISG15 and PKR expression [13]): reduced
- cytotoxicity in the matching cell lines [14]: negligible cytotoxicity
- expression of ISG15 and PKR, SARS-CoV-2-infected Caco-2 cells (ISG15 and PKR expression [15]): significantly enhanced

Compound: Cc1cccc(NC(=O)c2sc(=S)n3c2[nH]c(=O)c2cc4c(cc23)OCO4)c1 [F0393]
- IC50 (SARS2-PLpro [1]): 15.8 µM
- EC50 (SARS-CoV-2 [2]; [16]): 15.6 µM

Compound: N#C[C@@]1(c2ccc3c(N)ncnn23)O[C@H](CO)[C@@H](O)[C@H]1O [GS-441524, reference compound]
- decrease of infectious viral PFU in lung tissues (SARS-CoV-2 [9]): comparable
- lung histology scores (SARS-CoV-2 [9]): significantly reduced
- suppression of SARS-CoV-2 genome copies (normalized by β-actin) in the lungs (SARS-CoV-2 [9]): comparable degree of suppression

Compound: CCC(CC)COC(=O)[C@H](C)N[P@](=O)(OC[C@H]1O[C@@](C#N)(c2ccc3c(N)ncnn23)[C@H](O)[C@@H]1O)Oc1ccccc1 [remdesivir]
- NP antigen immunofluorescence, SARS-CoV-2-infected Vero cells (SARS-CoV-2 [6]): significant inhibition of virus replication
- NP antigen immunofluorescence, MERS-CoV-infected Vero cells (MERS-CoV [7]): significant inhibition of virus replication

Compound: GRL0617 [reference compound]
- effect on MERS-PLpro activity (MERS-PLpro): ineffective
- inhibition against MERS-CoV (MERS-CoV [3]): no inhibition
- NP antigen immunofluorescence, SARS-CoV-2-infected Vero cells (SARS-CoV-2 [6]): marginal virus suppression
- NP antigen immunofluorescence, MERS-CoV-infected Vero cells (MERS-CoV [7]): marginal virus suppression
- KD, MERS-PLpro WT (MERS-PLpro_WT): no binding affinity
